Experiment: xn = mol fraction of the nth substance listed
Conditions: 100 kPa

CC(=O)[O-].CCC[NH3+] + CN1CCCC1=O
speed of sound [m/s]
Conditions	293.15 K	298.15 K	303.15 K	308.15 K	313.15 K	318.15 K	323.15 K	328.15 K	333.15 K
x2 = 0	1504.2	1490.7	–	1461.9	1447.5	–	–	1405.6	–
x2 = 0.05	1506.6	1493.5	–	1464	–	1434.5	1420.4	1406.6	1392.6
x2 = 0.0978	1509.6	1495.7	1481.1	1466.8	1451.7	1436.1	1421.4	1407.6	1393.3
x2 = 0.1978	1515	1501	1485.6	1471.1	–	1439.8	1424.3	1410	1395.1
x2 = 0.3095	1522.4	1506.4	1491.6	1474.8	1459.3	–	–	1413.1	1397.7
x2 = 0.3891	1527.5	1511.4	1495.3	1479	1462.8	1446.7	–	–	1399.2
x2 = 0.4931	1533.3	1517	1500.3	1484.2	1467.1	1451.1	1433.2	1417.5	1401.1
x2 = 0.599	1539.9	1521.9	–	1488.3	1471.5	1453.8	1436.8	1420.2	–
x2 = 0.7001	1545.8	1527.3	–	1492	1474.8	–	1439.8	1422.2	1405.1
x2 = 0.7998	–	1533.1	1515.2	1497.2	–	1461.4	–	–	1407.8
x2 = 0.891	–	1538.6	1519.6	1501.1	1482.7	1463.9	1445.1	1427.5	1409

CCC[NH3+].O=C[O-] + O
speed of sound [m/s]
Conditions	293.15 K	298.15 K	303.15 K	308.15 K	313.15 K	318.15 K	323.15 K	328.15 K	333.15 K
x2 = 0	1552	1540.7	1530.2	–	1509.5	1499.2	1489.1	1479	1469
x2 = 0.0505	1557.1	1546.6	1536.1	1525.7	1515.4	–	1495.1	1485	1474.9
x2 = 0.1036	1565.1	1554.7	1544.2	1533.9	1523.7	1513.5	1503.4	1493.4	1483.2
x2 = 0.2456	1588.7	1578.5	1568.5	–	1548.1	1538	1528	–	–
x2 = 0.2838	–	1585.9	1575.7	1565.6	–	1545.4	–	1525.4	–
x2 = 0.429	1615.5	1605.7	–	–	1575.8	1566	1556	1546.1	1536
x2 = 0.5184	1632.4	–	1612.8	1603	1593	1583.1	1573.2	1563.3	–
x2 = 0.6064	–	–	1635.4	1625.7	1616	1606.2	1596.4	–	1576.6
x2 = 0.6994	1687.5	1678.4	1669.2	1659.9	1650.5	1641	1631.5	1621.8	1611.9
x2 = 0.8008	1727.2	1719.4	1711.3	–	1694.3	–	1676.4	1666.8	1657.3
x2 = 0.9026	1730	1725.8	–	1716.1	1710.7	1704.7	1698.3	1691.5	1684.3

CC(=O)[O-].CCC[NH3+] + O
speed of sound [m/s]
Conditions	293.15 K	298.15 K	303.15 K	308.15 K	313.15 K	318.15 K	323.15 K	328.15 K	333.15 K
x2 = 0	1504.2	1490.7	1476.6	1461.9	1447.5	1433.3	–	1405.6	1391.1
x2 = 0.05	1506.6	1493.5	1478.6	1464	1449.1	1434.5	1420.4	1406.6	1392.6
x2 = 0.0978	1509.6	1495.7	–	1466.8	1451.7	1436.1	–	1407.6	1393.3
x2 = 0.1978	–	–	1485.6	–	–	1439.8	1424.3	–	1395.1
x2 = 0.3095	–	1506.4	1491.6	1474.8	1459.3	–	1428	1413.1	1397.7
x2 = 0.3891	1527.5	1511.4	1495.3	1479	1462.8	1446.7	1430.3	1414.7	1399.2
x2 = 0.4931	–	1517	1500.3	–	–	–	1433.2	1417.5	–
x2 = 0.599	1539.9	1521.9	1505.3	1488.3	1471.5	–	1436.8	1420.2	1402.8
x2 = 0.7001	1545.8	1527.3	1510	1492	1474.8	1457.5	1439.8	1422.2	1405.1
x2 = 0.7998	1552.5	–	–	1497.2	1478.8	1461.4	–	1424.9	1407.8
x2 = 0.891	–	1538.6	1519.6	1501.1	1482.7	1463.9	–	–	1409

CCC[NH3+].O=C[O-] + CN1CCCC1=O
speed of sound [m/s]
Conditions	293.15 K	298.15 K	303.15 K	308.15 K	313.15 K	318.15 K	323.15 K	328.15 K	333.15 K
x2 = 0	–	1540.7	–	1519.8	1509.5	1499.2	1489.1	1479	1469
x2 = 0.0494	1556.8	1546	1535.1	–	1513.7	1503.1	–	1482	1471.6
x2 = 0.1047	1557.7	1546.3	1534.9	1523.6	–	1501.3	1490.2	1479.3	1468.4
x2 = 0.1953	1559.5	1547.5	1535.4	1523.3	1511.4	1499.5	1487.7	1475.9	1464.2
x2 = 0.3021	–	1547.4	1534.2	–	1508.1	1495.2	1482.3	1469.4	1456.6
x2 = 0.4205	1563.9	–	–	1520.9	1506.7	1492.6	1478.5	1464.5	1450.5
x2 = 0.5063	1566	1550.9	1535.7	1520.7	1505.7	–	1475.9	1461.1	1446.3
x2 = 0.6001	1565.4	1549.7	1533.7	1517.8	1501.9	1486.2	–	–	1439.1
x2 = 0.7075	1565	1548.1	1531.2	1514.3	1497.6	1480.9	1464.2	1447.5	–
x2 = 0.7986	–	–	1529.2	1511.6	–	1476.8	1459.5	1442.2	–
x2 = 0.9048	–	1545.7	1527.6	–	1491.4	1473.5	1455.7	1438	1420.3

Reference: a compilation of properties of binary mixtures (doi:10.1016/j.molliq.2016.04.040)
